Test results from patent US20230117034A1, “PYRAZOLOTRIAZINES” (Bayer Aktiengesellschaft, priority 2019, published 2023).
Like-named read-outs stand apart in the source and are kept apart here.

Columns and labels:
CDK9/CycT1 = molecular target: T1, CDK9/CycT1 (Homo sapiens, UniProt P50750); experiment: CDK9/CycT1 high ATP kinase assay (TR-FRET, 2 mM ATP); format: biochemical
T1 construct: Recombinant full-length His-tagged human CDK9 and CycT1; purchased Life Technologies PV4131; host or cells: insect cells
Procedure, shortened: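 Full-length His-tagged human CDK9/CycT1 (insect cell, ~0.5 μg/mL) preincubated 15 min at 22 °C with compound in Tris pH 8.0, MgCl2, DTT buffer before reaction with biotinylated peptide substrate at high ATP (2 mM).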

[1] = tested on: BRCA1 mRNA expression in MDA-MB-231 cells; experiment: qRT-PCR assay: BRCA1 mRNA expression in MDA-MB-231; format: cell-based, human; conditions: Homo sapiens, median, read-out: RTqPCR-MDA-MB-231, IC50, BRCA1 (median)
Procedure, shortened: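 Read-out is RT-qPCR with expression normalised to the GAPDH housekeeping gene. Before RNA isolation, plated cells (200,000 per well, 24 h attachment) received test substances continuously over 24 h, and 600 ng of RNA served as cDNA template.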

[2] = tested on: MDA-MB-231, human breast cancer cells; experiment: Proliferation assay MDA-MB-231 (crystal violet, 4 days); format: cell-based; conditions: Homo sapiens, MDA-MB-231 cells, median, read-out: Prolif-MDA MB-231, IC50-[mol/l] (median)
Procedure, shortened: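 Plated 4,000 cells/well, 10% FCS; 24 h later treated 0.01-10 µmol/L cpd (DMSO 0.1%), 4 d. Fix glutaraldehyde, stain 0.1% crystal violet pH 3.0, elute acetic acid, A595. Normalized to t0 plate/untreated; 4-param IC50.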

[3] = 2 mM ATP (high ATP), median, read-out: CDK9/CyclinT1, 2 mM ATP (high ATP), IC50 (median)
[4] = MDA-MB-231, Inhibition of BRCA1 mRNA expression in MDA-MB-231 cells

T1 sequence (P50750 whole entry): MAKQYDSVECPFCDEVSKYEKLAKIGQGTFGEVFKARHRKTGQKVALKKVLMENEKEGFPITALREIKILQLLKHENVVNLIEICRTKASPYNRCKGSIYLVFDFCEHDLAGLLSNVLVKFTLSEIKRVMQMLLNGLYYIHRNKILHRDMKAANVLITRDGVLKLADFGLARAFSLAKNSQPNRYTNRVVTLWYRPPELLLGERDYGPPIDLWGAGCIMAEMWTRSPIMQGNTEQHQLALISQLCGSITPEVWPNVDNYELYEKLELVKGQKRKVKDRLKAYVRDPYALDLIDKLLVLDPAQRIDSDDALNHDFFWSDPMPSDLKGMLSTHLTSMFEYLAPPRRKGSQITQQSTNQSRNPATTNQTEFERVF
T1 sequence (O60563 whole entry partner): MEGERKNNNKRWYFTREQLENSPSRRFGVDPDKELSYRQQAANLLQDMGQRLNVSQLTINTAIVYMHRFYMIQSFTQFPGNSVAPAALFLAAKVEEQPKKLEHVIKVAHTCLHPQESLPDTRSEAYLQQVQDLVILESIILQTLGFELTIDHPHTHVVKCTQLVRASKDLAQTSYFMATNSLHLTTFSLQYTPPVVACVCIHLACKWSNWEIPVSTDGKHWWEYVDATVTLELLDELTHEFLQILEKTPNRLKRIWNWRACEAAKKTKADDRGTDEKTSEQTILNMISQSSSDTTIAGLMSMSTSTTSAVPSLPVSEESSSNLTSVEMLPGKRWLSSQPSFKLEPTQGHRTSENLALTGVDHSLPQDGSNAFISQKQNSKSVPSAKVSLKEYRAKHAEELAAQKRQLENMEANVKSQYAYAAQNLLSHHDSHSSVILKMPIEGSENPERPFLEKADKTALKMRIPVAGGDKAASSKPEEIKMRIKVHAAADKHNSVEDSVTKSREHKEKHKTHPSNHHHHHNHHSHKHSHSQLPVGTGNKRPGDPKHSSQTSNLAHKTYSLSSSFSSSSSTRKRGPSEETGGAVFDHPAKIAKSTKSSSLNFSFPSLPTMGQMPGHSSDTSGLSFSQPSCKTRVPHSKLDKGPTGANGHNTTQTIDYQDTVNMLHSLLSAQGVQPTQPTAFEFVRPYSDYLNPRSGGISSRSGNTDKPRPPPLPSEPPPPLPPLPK

Row | SMILES | IC50 (CDK9/CycT1; [3]) | IC50 [1, 4] | IC50 ([2]; MDA-MB-231, 96 h) | IC50 (CDK9/CycT1) | IC50 ([1]; Inhibition of BRCA1 mRNA expression in MDA-MB-231 cells) | IC50 ([2]; 96 h)
1 | FC(F)(F)c1cnn2c(NCc3nc4cc(Cl)c(Cl)cc4[nH]3)nc(N3CCOCC3)nc12 [Example 332, N-[(5,6-dichloro-1H-benzimidazol-2-yl)methyl]-2-(morpholin-4-yl)-8-(trifluoromethyl)pyrazolo[1,5-a][1,3,5]triazin-4-amine] | > 20000 nM | 3.78 nM | 11.8 nM | – | – | –
2 | Clc1cc2nc(CNc3nc(N4CCOCC4)nc4c(Br)cnn34)[nH]c2cc1Cl [Example 329, 8-bromo-N-[(5,6-dichloro-1H-benzimidazol-2-yl)methyl]-2-(morpholin-4-yl)pyrazolo[1,5-a][1,3,5]triazin-4-amine] | 13800 nM | 9.23 nM | 7.66 nM | – | – | –
3 | Fc1cc2nc(CNc3nc(N4CC5CCC(C4)N5)nc4c(C5CC5)cnn34)[nH]c2cc1F [Example 325, 8-cyclopropyl-2-(3,8-diazabicyclo[3.2.1]octan-3-yl)-N-[(5,6-difluoro-1H-benzimidazol-2-yl)methyl]pyrazolo[1,5-a][1,5]triazin-4-amine] | > 20000 nM | 3.91 nM | 3.22 nM | – | – | –
4 | Brc1cnn2c(NCc3nc4ccccc4[nH]3)nc(N3CCN4CCC3C4)nc12 (stereo not drawn) [Example 350, N-[(1H-benzimidazol-2-yl)methyl]-8-bromo-2-(1,4-diazabicyclo[3.2.1]octan-4-yl)pyrazolo[1,5-a][1,3,5]triazin-4-amine] | > 20000 nM | 13.7 nM | 13.7 nM | – | – | –
5 | CN(CC(C)(C)O)c1nc(NCc2nc3cc(Cl)c(Cl)cc3[nH]2)n2ncc(Br)c2n1 [Example 331, 1-[(8-bromo-4-{[(5,6-dichloro-1H-benzimidazol-2-yl)methyl]amino}pyrazolo[1,5-a][1,3,5]triazin-2-yl)(methyl)amino]-2-methylpropan-2-ol] | 4900 nM | 2.56 nM | 3.75 nM | – | – | –
6 | Cc1cc2nc(CNc3nc(N(C)CC(C)(C)O)nc4c(Br)cnn34)[nH]c2cc1C [Example 343, 1-[(8-bromo-4-{[(5,6-dimethyl-1H-benzimidazol-2-yl)methyl]amino}pyrazolo[1,5-a][1,3,5]triazin-2-yl)(methyl)amino]-2-methylpropan-2-ol] | 4270 nM | 1.91 nM | 2.84 nM | – | – | –
7 | CN(CC(C)(C)O)c1nc(NCc2nc3cc(F)c(F)cc3[nH]2)n2ncc(Br)c2n1 [Example 347] | 10400 nM | 2.04 nM | 4.35 nM | – | – | –
8 | Brc1cnn2c(NCc3nc4ccccc4[nH]3)nc(N3CCN4CCC3CC4)nc12 [Example 349, N-[(1H-benzimidazol-2-yl)methyl]-8-bromo-2-(1,4-diazabicyclo[3.2.2]nonan-4-yl)pyrazolo[1,5-a][1,3,5]triazin-4-amine] | > 20000 nM | 15.6 nM | 12.9 nM | – | – | –
9 | Fc1c(Cl)ccc2[nH]c(CNc3nc(N4CC5CCC(C4)N5)nc4c(C5CC5)cnn34)nc12 [Example 379, N-[(5-chloro-4-fluoro-1H-benzimidazol-2-yl)methyl]-8-cyclopropyl-2-(3,8-diazabicyclo[3.2.1]octan-3-yl)pyrazolo[1,5-a][1,3,5]triazin-4-amine] | 11300 nM | 2.36 nM | 2.92 nM | – | – | –
10 | Brc1cnn2c(NCc3nc4ccccc4[nH]3)nc(N3CC4CCC3CO4)nc12 (stereo not drawn) [Example 352, N-[(1H-benzimidazol-2-yl)methyl]-8-bromo-2-(2-oxa-5-azabicyclo[2.2.2]octan-5-yl)pyrazolo[1,5-a][1,3,5]triazin-4-amine] | 16800 nM | 4.93 nM | 18.8 nM | – | – | –
11 | FC(F)(F)c1ccc2[nH]c(CNc3nc(N4CCOCC4)nc4c(C5CC5)cnn34)nc2c1 [Example 322, 8-cyclopropyl-2-(morpholin-4-yl)-N-{[5-(trifluoromethyl)-1H-benzimidazol-2-yl]methyl}pyrazolo[1,5-a][1,3,5]triazin-4-amine] | > 20000 nM | 3.56 nM | 8.85 nM | – | – | –
12 | Fc1cc2nc(CNc3nc(N4CC5CCC(C4)N5)nc4c(Br)cnn34)[nH]c2cc1Cl [Example 348, 8-bromo-N-[(6-chloro-5-fluoro-1H-benzimidazol-2-yl)methyl]-2-(3,8-diazabicyclo[3.2.1]octan-3-yl)pyrazolo[1,5-a][1,3,5]triazin-4-amine] | – | – | – | 14000 nM | 1.97 nM | 2 nM
13 | Brc1cnn2c(NCc3nc4ccccc4[nH]3)nc(N3C[C@H]4CC[C@@H]3CO4)nc12 (single isomer, unassigned) [Example 383, N-[(1H-benzimidazol-2-yl)methyl]-8-bromo-2-{[1R or S-(1R*,4R*)]-2-oxa-5-azabicyclo[2.2.2]octan-5-yl}pyrazolo[1,5-a][1,3,5]triazin-4-amine] | > 20000 nM | 4.01 nM | 30 nM | – | – | –
14 | FC(F)(F)Oc1ccc2[nH]c(CNc3nc(N4C[C@H]5CC[C@@H](C4)N5)nc4c(Br)cnn34)nc2c1 [Example 382, 8-bromo-2-[(1R,5S)-3,8-diazabicyclo[3.2.1]octan-3-yl]-N-{[5-(trifluoromethoxy)-1H-benzimidazol-2-yl]methyl}pyrazolo[1,5-a][1,3,5]triazin-4-amine] | > 20000 nM | 28.8 nM | 29.3 nM | – | – | –
15 | CN(c1nc(NCc2nc3ccccc3[nH]2)n2ncc(Br)c2n1)[C@H]1C[C@@H](O)C1 [Example 364, cis-3-[(4-{[(1H-benzimidazol-2-yl)methyl]amino}-8-bromopyrazolo[1,5-a][1,3,5]triazin-2-yl)(methyl)amino]cyclobutan-1-ol] | > 20000 nM | 9.75 nM | 41.3 nM | – | – | –
16 | Fc1c(Cl)ccc2[nH]c(CNc3nc(N4CCOCC4)nc4c(Br)cnn34)nc12 [Example 372, 8-bromo-N-[(5-chloro-4-fluoro-1H-benzimidazol-2-yl)methyl]-2-(morpholin-4-yl)pyrazolo[1,5-a][1,3,5]triazin-4-amine] | 3930 nM | 2.16 nM | 4.28 nM | – | – | –
17 | Clc1cc2nc(CNc3nc(N4CC5CCC(C4)N5)nc4c(C5CC5)cnn34)[nH]c2cc1Cl [Example 324, 8-cyclopropyl-2-(3,8-diazabicyclo[3.2.1]octan-3-yl)-N-[(5,6-dichloro-1H-benzimidazol-2-yl)methyl]pyrazolo[1,5-a][1,3,5]triazin-4-amine] | 12300 nM | 8.86 nM | 1.56 nM | – | – | –
18 | Fc1cc2nc(CNc3nc(N4CCOCC4)nc4c(C(F)(F)F)cnn34)[nH]c2cc1F [Example 333, N-[(5,6-difluoro-1H-benzimidazol-2-yl)methyl]-2-(morpholin-4-yl)-8-(trifluoromethyl)pyrazolo[1,5-a][1,3,5]triazin-4-amine] | > 20000 nM | 1.8 nM | 3.78 nM | – | – | –
19 | Cc1cc2nc(CNc3nc(N4CCN(C)CC4)nc4c(Br)cnn34)[nH]c2cc1C [Example 342, 8-bromo-N-[(5,6-dimethyl-1H-benzimidazol-2-yl)methyl]-2-(4-methylpiperazin-1-yl)pyrazolo[1,5-a][1,3,5]triazin-4-amine] | > 20000 nM | 1.27 nM | 1.97 nM | – | – | –
20 | FC(F)(F)c1ccc2[nH]c(CNc3nc(N4CC5CCC(C4)N5)nc4c(C5CC5)cnn34)nc2c1 [Example 327, 8-cyclopropyl-2-(3,8-diazabicyclo[3.2.1]octan-3-yl)-N-{[5-(trifluoromethyl)-1H-benzimidazol-2-yl]methyl}pyrazolo[1,5-a][1,3,5]triazin-4-amine] | > 20000 nM | 8.3 nM | 2.27 nM | – | – | –
21 | FC(F)(F)c1ccc2[nH]c(CNc3nc(N4CC5CCC(C4)N5)nc4c(Br)cnn34)nc2c1 [Example 354, 8-bromo-2-(3,8-diazabicyclo[3.2.1]octan-3-yl)-N-{[5-(trifluoromethyl)-1H-benzimidazol-2-yl]methyl}pyrazolo[1,5-a][1,3,5]triazin-4-amine] | > 20000 nM | < 100 nM | 3.05 nM | – | – | –
22 | CN1CCN(c2nc(NCc3nc4c(F)c(F)ccc4[nH]3)n3ncc(Cl)c3n2)CC1 [Example 358, 8-chloro-N-[(4,5-difluoro-1H-benzimidazol-2-yl)methyl]-2-(4-methylpiperazin-1-yl)pyrazolo[1,5-a][1,3,5]triazin-4-amine] | > 20000 nM | 3.87 nM | 14.8 nM | – | – | –
23 | CN1CCN(c2nc(NCc3nc4cc(F)c(Cl)cc4[nH]3)n3ncc(Br)c3n2)CC1 [Example 337, 8-bromo-N-[(6-chloro-5-fluoro-1H-benzimidazol-2-yl)methyl]-2-(4-methylpiperazin-1-yl)pyrazolo[1,5-a][1,3,5]triazin-4-amine] | > 20000 nM | < 10 nM | 2.45 nM | – | – | –
24 | Cc1cc2nc(CNc3nc(N4CC5CCC(C4)N5)nc4c(Br)cnn34)[nH]c2cc1C [Example 353, 8-bromo-2-(3,8-diazabicyclo[3.2.1]octan-3-yl)-N-[(5,6-dimethyl-1H-benzimidazol-2-yl)methyl]pyrazolo[1,5-a][1,3,5]triazin-4-amine] | 12700 nM | 2.39 nM | 1.81 nM | – | – | –
